According to patent publication US10688128B2, “Use of Z-butylidenephthalide in activating autoimmune system” (EVERFRONT BIOTECH INC., priority 2016, dated 2020):

Key:
PDL-1 protein [1] = test: Expression of PDL-1 protein by Western Blotting, B16 cell line; format: cell-based; conditions: B16 cell line (mouse melanocytoma cells), various concentrations of Z-BP, 24 hours, actin internal control
Procedure: (§1) The RG2 cell line (rat malignant glioma cells), […] cell line (glioblastoma stem cells), Paca2 cell line (human pancreatic cancer cells), […] cell line (human non-small-cell lung cancer cells), or B16 cell line (mouse melanocytoma cells) were independently treated with various concentrations of Z-BP for 24 hours. Then, the proteins in the cells were extracted and the expressions of PDL-1 protein in the cancer cells treated with Z-BP were detected by Western Blotting. In addition, the expression of actin was detected and used as the internal control.

PDL-1 protein [2] = test: Expression of PDL-1 protein by Western Blotting, Paca2 cell line; format: cell-based; conditions: Paca2 cell line (human pancreatic cancer cells), various concentrations of Z-BP, 24 hours, actin internal control
Procedure: as §1

PDL-1 protein [3] = test: Expression of PDL-1 protein by Western Blotting, 1×M cell line; format: cell-based; conditions: 1×M cell line (glioblastoma stem cells), various concentrations of Z-BP, 24 hours, actin internal control
Procedure: as §1

PDL-1 protein [4] = test: Expression of PDL-1 protein by Western Blotting, H1650 cell line; format: cell-based; conditions: H1650 cell line (human non-small-cell lung cancer cells), various concentrations of Z-BP, 24 hours, actin internal control
Procedure: as §1

PDL-1 protein [5] = test: Expression of PDL-1 protein by Western Blotting, RG2 cell line; format: cell-based; conditions: RG2 cell line (rat malignant glioma cells), various concentrations of Z-BP, 24 hours, actin internal control
Procedure: as §1

[6] = tested on: stage three or four melanoma; conditions: patients with stage three or four melanoma, Ipilimumab alone; cited from earlier work

| Compound | expression of PDL-1 protein (PDL-1 protein [1]) | expression of PDL-1 protein (PDL-1 protein [2]) | expression of PDL-1 protein (PDL-1 protein [3]) | expression of PDL-1 protein (PDL-1 protein [4]) | expression of PDL-1 protein (PDL-1 protein [5]) | overall survival rate increased [6] [months] |
| --- | --- | --- | --- | --- | --- | --- |
| CCC/C=C1\OC(=O)c2ccccc21 [Z-BP, Z-butylidenephthalide] | significantly decreased | significantly decreased | significantly decreased | significantly decreased | significantly decreased |  |
| Ipilimumab |  |  |  |  |  | 10.1 |
